Results on one compound are retold here after US20120122906A1, “NOVEL SULFONAMIDE DERIVATIVE AND PHARMACEUTICAL PRODUCT CONTAINING SAME” (KOWA COMPANY, LTD., priority 2009, published 2012).

The structures appear in SMILES notation.

What is called EC50 is the concentration that produces a half-maximal response. Lower therefore signals a more potent agent.

For test [1], the target named is T1, angiotensin II type 1 receptor (Oryctolagus cuniculus, UniProt P34976).
T1 construct: By using a specimen of isolated rabbit blood vessels; from tissue; host or cells: rabbit thoracic aorta ring (New Zealand White, male)
T1 sequence (P34976 1-359): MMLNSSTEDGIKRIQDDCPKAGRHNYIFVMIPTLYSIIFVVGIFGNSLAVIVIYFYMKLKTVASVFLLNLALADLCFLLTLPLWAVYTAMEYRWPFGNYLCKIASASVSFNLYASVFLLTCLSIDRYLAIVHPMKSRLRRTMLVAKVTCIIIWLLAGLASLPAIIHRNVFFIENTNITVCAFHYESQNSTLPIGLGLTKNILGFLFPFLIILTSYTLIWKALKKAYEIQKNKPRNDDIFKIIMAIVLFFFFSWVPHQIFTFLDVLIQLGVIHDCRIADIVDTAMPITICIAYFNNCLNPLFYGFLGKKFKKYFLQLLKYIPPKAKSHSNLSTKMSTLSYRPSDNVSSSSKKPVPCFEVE
In words: Angiotensin II antagonistic activity in isolated rabbit blood vessels (angiotensin II-induced contraction of thoracic aorta ring). The note with it: 0.1 μM compound, angiotensin II (10 nM)-induced contraction, read-out: Angiotensin II activity inhibition rate (%) at 0.1 μM concentration. The method, then:
By using a specimen of isolated rabbit blood vessels, antagonistic activity of the compounds of the invention against angiotensin II type 1 receptor was estimated from a dose-response curve of angiotensin II-induced blood vessel contraction. Specifically, the specimen of thoracic aorta ring of a rabbit (New Zealand White: male, 2.4 to 3.0 kg) was suspended in a magnus bath filled with Krebs-Henseleite buffer (composition: 118 mM NaCl, 4.7 mM KCl, 2.55 mM CaCl2, 1.18 mM MgSO4, 1.18 mM KH2PO4, 24.88 mM NaHCO3, and 11.1 mM D-glucose), and angiotensin II (10 nM)-induced contraction was obtained in the presence of the compounds of each example (1 nmol to 10 μmol/L). During the measurement, the inside temperature of the magnus bath was maintained at 37° C. and the bath was continuously ventilated with a sufficient amount of mixed gas (95% O2 and 5% CO2). The angiotensin II-induced contraction was converted into a relative value (%) that is based on the angiotensin II (10 nM)-induced contraction in the absence of the compounds of each example. From the concentration-response curve obtained therefrom, 50% inhibition concentration (IC50 value) was calculated by using SAS Preclinical Package Ver 5.0 (trade name, manufactured by SAS institute Japan Co., Tokyo, Japan), which is a statistical analysis program.

For the next test, the target named is T2, human PPARγ2 (Homo sapiens, UniProt P37231).
T2 construct: the amino acids 182 to 505 of human PPARγ2; expressed in transfected cells
T2 sequence (P37231 182-505): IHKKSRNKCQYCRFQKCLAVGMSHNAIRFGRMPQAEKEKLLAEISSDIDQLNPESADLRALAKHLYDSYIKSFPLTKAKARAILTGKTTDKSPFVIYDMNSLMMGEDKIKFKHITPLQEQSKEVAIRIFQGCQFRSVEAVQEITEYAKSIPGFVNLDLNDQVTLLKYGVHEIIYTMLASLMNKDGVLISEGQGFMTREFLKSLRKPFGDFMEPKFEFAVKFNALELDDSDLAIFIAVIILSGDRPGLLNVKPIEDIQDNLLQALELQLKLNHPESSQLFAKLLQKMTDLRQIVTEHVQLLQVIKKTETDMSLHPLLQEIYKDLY
In words: PPARγ activation activity, Gal4-PPARγ2 LBD luciferase transfection assay in COST cells. The note with it: Gal4-human PPARγ2 LBD luciferase reporter, 16 hours, rosiglitazone = 100%. Type of test: cell-based. The method, then:
The agonistic activity of the compounds of the invention on PPARγ was measured based on the transfection assay using COST cells (DS Pharma Biomedical Co., Ltd., Osaka, Japan), which are the cell line derived from the kidney of the African green monkey. COST cells were cultured under 5% CO2 concentration, and DMEM medium containing 10% fetal bovine serum, glutamic acid, and antibiotics was used as a medium.
As an expression vector, a chimera in which DNA binding domain of Gal4, which is a yeast transcription factor, and ligand binding domain of human PPARγ2 are fused, i.e., a fused product between the amino acids 1 to 147 of Gal4 transcription factor and the amino acids 182 to 505 of human PPARγ2, was used. Furthermore, as a reporter vector, a firefly luciferase containing five copies of Gal4 recognition sequence in the promoter region was used. Plasmid transfection to the cells was performed according to a method which uses jetPEI (trade name, manufactured by Funakoshi Co., Ltd., Tokyo, Japan). Furthermore, β-galactosidase expression vector was employed as an internal standard.
After the transfection of the cells, the medium was replaced with a DMEM medium (containing 1% serum) added with the compound, and the cells were further cultured for 16 hours. After that, the luciferase activity and β-galactosidase activity in the cell lysis solution were measured.
For the present test, dimethyl sulfoxide (DMSO) was used for dissolution and dilution of the test compounds, and during the cell treatment, the DMSO concentration in DMEM medium (containing 1% serum) was adjusted to 0.1%. As a positive compound, rosiglitazone (trade name, manufactured by ALEXIS Corporation, Switzerland) was used. The luciferase activity (%) of the test compounds (1 to 30 μmol/L) was calculated when the luciferase activity of rosiglitazone (3 to 10 μmol/L) is 100% and the luciferase activity in the absence of the test compound is 0%. The 50% effective concentration of the test compound (EC50, 50% effect concentration) was calculated by using SAS Preclinical Package Ver 5.0 (trade name, manufactured by SAS institute Japan Co., Tokyo, Japan), which is a statistical analysis program.
Under the same condition, the PPARγ activation activity of telmisartan, i.e., EC50, was 1 to 5 μM. In addition, it was confirmed that compounds of Examples not shown in Table 2 also have PPARγ activation activity at a concentration of 30 μM.

Turning to `CCCCc1nc(C)n(-c2ncc(OCC)cn2)c(=O)c1Cc1ccc(-c2ccccc2S(=O)(=O)NC(=O)C2CC2)cc1` [Example 8, N-{4′-{[4-butyl-1-(5-ethoxypyrimidin-2-yl)-2-methyl-6-oxo-1,6-dihydropyrimidin-5-yl]methyl}biphenyl-2-ylsulfonyl}cyclopropanecarboxamide], the inhibition at 0.1 µM in test [1] came out at 77.5%. The EC50 at human PPARγ2 was 3.69 µM.
